The conditions of experiment [1]: clinical tests; cited from earlier work.
For experiment [2] the following is noted: murine asthma model; cited from earlier work.
The conditions of experiment [3]: monkey model of kidney transplantation; cited from earlier work.
The conditions of experiment [4]: clinical tests; cited from earlier work. The source holds these as a separate data set.
A further experiment addresses JAK3 (Homo sapiens (Human), UniProt P52333). Kind of experiment: JAK3 enzyme assay (Assay Example^b 1). Particulars: IC50 (μM) JAK3, ATP 100 μM.
In the next experiment the target is JAK2 (Homo sapiens (Human), UniProt O60674). Kind of experiment: JAK2 enzyme assay (Assay Example^b 1). The conditions noted are these: IC50 (μM) JAK2, ATP 100 μM.
The target in a further experiment is Tyk2 (Homo sapiens (Human), UniProt P29597). Kind of experiment: Tyk2 enzyme assay (Assay Example^b 1). The conditions noted are these: IC50 (μM) TYK2, ATP 100 μM.
The next experiment deals with JAK1 (Homo sapiens (Human), UniProt P23458). Kind of experiment: JAK1 enzyme assay (Assay Example^b 1). Particulars: IC50 (μM) JAK1, ATP 100 μM.

Where only a bound is given, the exact number is not on record here.

The IC50 is the midpoint of a concentration-inhibition curve.

Sequence of JAK3 (P52333 whole entry): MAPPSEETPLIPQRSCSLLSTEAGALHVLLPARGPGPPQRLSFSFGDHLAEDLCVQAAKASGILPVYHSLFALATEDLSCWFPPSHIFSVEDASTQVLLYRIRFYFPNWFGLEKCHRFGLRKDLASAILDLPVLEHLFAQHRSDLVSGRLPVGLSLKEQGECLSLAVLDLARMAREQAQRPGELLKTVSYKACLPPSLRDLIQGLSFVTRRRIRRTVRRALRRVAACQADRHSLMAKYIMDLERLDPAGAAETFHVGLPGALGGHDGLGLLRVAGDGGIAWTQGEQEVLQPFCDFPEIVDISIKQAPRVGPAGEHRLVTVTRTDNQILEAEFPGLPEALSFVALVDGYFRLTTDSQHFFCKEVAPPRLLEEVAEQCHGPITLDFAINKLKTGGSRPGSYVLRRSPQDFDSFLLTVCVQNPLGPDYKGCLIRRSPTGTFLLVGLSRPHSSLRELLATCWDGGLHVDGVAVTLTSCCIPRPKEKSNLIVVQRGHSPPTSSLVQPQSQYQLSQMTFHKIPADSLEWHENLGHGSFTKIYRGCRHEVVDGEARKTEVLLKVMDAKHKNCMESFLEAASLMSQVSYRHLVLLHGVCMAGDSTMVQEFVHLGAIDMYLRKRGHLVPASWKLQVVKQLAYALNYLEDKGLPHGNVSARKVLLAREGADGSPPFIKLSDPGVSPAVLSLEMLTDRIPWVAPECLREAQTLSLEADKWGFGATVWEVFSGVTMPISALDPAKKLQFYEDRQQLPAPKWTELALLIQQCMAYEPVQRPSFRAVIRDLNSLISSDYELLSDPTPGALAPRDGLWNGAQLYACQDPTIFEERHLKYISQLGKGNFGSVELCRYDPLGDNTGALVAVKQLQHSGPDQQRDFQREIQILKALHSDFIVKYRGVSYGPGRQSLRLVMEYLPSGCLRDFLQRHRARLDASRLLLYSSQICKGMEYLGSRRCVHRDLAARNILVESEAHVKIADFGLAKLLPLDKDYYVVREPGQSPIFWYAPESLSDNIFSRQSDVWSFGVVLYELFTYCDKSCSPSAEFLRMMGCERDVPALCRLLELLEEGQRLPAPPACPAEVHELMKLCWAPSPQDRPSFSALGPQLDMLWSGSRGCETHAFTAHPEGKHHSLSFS
Sequence of Tyk2 (P29597 whole entry): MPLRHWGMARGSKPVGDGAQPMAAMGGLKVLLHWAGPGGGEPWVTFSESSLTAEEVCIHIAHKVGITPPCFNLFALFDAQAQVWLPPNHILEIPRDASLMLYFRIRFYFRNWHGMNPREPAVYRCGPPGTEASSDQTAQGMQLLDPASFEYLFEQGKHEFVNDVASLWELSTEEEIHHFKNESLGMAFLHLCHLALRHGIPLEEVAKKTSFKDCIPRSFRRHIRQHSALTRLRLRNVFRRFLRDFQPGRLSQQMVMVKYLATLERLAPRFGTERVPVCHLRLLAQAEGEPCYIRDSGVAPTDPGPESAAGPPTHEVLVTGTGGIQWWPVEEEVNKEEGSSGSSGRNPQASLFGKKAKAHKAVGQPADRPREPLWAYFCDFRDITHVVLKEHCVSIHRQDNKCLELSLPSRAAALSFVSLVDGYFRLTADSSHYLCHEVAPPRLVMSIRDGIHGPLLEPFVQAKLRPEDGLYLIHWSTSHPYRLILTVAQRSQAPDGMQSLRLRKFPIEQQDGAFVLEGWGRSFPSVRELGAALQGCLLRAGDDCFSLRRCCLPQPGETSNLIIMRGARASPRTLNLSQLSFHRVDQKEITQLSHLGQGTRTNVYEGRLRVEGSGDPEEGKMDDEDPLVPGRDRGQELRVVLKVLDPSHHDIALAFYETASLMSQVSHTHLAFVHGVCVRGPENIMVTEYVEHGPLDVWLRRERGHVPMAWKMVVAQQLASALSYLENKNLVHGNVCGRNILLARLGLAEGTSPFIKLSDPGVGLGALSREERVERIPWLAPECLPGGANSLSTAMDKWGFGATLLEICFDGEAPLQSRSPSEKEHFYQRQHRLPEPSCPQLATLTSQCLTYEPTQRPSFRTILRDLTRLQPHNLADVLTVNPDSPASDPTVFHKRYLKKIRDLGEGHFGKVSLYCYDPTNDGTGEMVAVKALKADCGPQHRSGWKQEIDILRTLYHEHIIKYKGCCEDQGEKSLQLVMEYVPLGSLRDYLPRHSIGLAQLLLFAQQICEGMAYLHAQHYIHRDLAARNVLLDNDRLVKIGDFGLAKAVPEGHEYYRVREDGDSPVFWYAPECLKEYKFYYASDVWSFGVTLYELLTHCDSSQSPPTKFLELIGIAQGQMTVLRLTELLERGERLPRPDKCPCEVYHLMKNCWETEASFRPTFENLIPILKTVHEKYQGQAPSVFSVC

For `C[C@@H]1CCN(C(=O)CC#N)C[C@@H]1N(C)c1ncnc2[nH]ccc12` [CP-690,550], in experiment [1], the “pathology of rheumatoid arthritis” value was “improved the pathology”. In addition, in experiment [2], the airway inflammation entry was “suppressed”. The rejection result in experiment [3] is recorded as “suppressed rejection”. For the same compound, the pathology of psoriasis result in experiment [4] is listed as “improved the pathology”.
As to `O=c1[nH]c(=O)n(C2CCN(CCNC3CCNCC3)CC2)c2c1cnc1[nH]ccc12` [compound 111], the IC50 is over 1 µM at JAK3, over 1 µM against JAK2, over 1 µM on Tyk2 and 0.44 µM at JAK1.

The values are drawn from patent publication US9216999B2, “Substituted pyrrolo[2,3-h][1,6]naphthyridines and compositions thereof as JAK inhibitors” (priority 2011, dated 2015).
